Reference: ChEMBL document CHEMBL5338706, “Discovery of a potent and selective proteolysis targeting chimera (PROTAC) degrader of NSD3 histone methyltransferase” (Eur J Med Chem, 2022)
Active and inactive are the calls of the source. The calls are words filed in the database; no cut-off is given here.

Columns and labels:
[1] = Downregulation of NSD3 level in human NCI-H1703 cells at 3 uM by measuring fold change by Western blot analysis relative to control; format: functional
[2] = target: T1, Histone-lysine N-methyltransferase NSD3 (Homo sapiens) (UniProt Q9BZ95); assay: Induction of NSD3 degradation in human NCI-H1703 cells at 3 uM incubated for 48 hrs in presence of MG132 by Western blot analysis; format: cell-based
T1 sequence (whole entry): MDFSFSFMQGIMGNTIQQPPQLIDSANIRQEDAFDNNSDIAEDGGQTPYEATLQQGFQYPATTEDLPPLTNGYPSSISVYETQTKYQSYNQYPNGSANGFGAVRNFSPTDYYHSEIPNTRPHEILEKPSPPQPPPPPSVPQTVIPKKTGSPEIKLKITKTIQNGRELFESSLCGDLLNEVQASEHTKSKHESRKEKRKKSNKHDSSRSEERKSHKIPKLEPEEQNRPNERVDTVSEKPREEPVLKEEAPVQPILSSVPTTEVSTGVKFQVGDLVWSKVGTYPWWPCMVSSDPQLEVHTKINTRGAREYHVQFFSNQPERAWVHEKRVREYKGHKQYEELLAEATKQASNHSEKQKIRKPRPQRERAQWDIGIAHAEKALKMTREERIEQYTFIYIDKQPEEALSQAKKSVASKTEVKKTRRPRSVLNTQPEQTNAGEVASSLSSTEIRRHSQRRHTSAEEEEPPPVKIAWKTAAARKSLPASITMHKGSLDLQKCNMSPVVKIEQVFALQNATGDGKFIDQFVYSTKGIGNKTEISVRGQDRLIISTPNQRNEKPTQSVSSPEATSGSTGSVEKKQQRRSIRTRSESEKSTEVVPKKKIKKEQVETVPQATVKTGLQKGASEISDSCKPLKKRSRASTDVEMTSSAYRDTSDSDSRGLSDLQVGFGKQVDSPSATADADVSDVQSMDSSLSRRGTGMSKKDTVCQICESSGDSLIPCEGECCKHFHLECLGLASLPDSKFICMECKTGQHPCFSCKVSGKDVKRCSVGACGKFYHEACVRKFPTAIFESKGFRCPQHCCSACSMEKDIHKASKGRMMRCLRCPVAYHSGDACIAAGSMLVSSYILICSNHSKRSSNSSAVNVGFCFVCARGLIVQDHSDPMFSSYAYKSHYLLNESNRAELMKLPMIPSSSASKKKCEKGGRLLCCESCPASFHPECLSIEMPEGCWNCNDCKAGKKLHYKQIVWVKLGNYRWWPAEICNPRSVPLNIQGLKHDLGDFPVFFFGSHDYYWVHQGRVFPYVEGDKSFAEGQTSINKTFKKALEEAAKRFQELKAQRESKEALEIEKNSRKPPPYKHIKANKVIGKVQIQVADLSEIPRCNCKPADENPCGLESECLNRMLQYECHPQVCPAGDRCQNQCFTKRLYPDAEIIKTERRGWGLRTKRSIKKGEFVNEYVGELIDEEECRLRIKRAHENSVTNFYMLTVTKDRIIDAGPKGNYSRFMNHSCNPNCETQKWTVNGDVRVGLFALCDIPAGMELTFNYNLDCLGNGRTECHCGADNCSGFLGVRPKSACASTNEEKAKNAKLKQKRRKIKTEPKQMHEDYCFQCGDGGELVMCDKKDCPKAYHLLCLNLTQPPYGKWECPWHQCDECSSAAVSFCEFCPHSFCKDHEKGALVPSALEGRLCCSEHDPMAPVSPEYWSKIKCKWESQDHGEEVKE

NCI-H520 [3] = assay: Induction of apoptosis in human NCI-H520 cells assessed as decrease in NSD3 protein expression at […] by measuring fold change by Western blot analysis relative to control; format: functional; conditions: dose 7.5 µM
NCI-H1703 [4] = assay: Induction of apoptosis in human NCI-H1703 cells assessed as late apoptotic cells at […] measured after 72 hrs by PI/Annexin-V staining based flow cytometry analysis (reference value: 3.00% ); format: functional; conditions: dose 7.5 µM
[5] = Downregulation of c-Myc level in human NCI-H520 cells at 3 uM by measuring fold change by Western blot analysis relative to control; format: functional
[6] = Downregulation of Cyclin D1 level in human NCI-H520 cells at 5 uM by measuring fold change by Western blot analysis relative to control; format: functional
[7] = Downregulation of NSD3 level in human NCI-H1703 cells at […] by measuring fold change by Western blot analysis relative to control; format: functional; conditions: dose 7.5 µM
NCI-H520 [8] = assay: Induction of apoptosis in human NCI-H520 cells assessed as decrease in MCL-1 protein expression at 5 uM by measuring fold change by Western blot analysis relative to control; format: functional
[9] = Downregulation of NSD3 level in human NCI-H520 cells at […] by measuring fold change by Western blot analysis relative to control; format: functional; conditions: dose 7.5 µM
A549 = assay: Antiproliferative activity against human A549 cells incubated for 3 days by CCK-8 method; format: functional, cell-based; conditions: A549, 72 h
NCI-H520 [10] = assay: Induction of apoptosis in human NCI-H520 cells assessed as decrease in NSD3 protein expression at 5 uM by measuring fold change by Western blot analysis relative to control; format: functional
[11] = target: T1, Histone-lysine N-methyltransferase NSD3 (Homo sapiens); assay: Induction of NSD3 degradation in human A549 cells assessed as reduction of NSD3 protein at 7.5 measured after 48 hrs by Western blot analysis; format: cell-based
NCI-H1703 [12] = assay: Induction of apoptosis in human NCI-H1703 cells assessed as decrease in NSD3 protein expression at […] by measuring fold change by Western blot analysis relative to control; format: functional; conditions: dose 7.5 µM
[13] = target: Histone-lysine N-methyltransferase, H3 lysine-36 specific (Homo sapiens) (UniProt Q96L73); assay: Induction of NSD1 degradation in human A549 cells at 5 to 10 uM incubated for 72 hrs by Western blot analysis; format: cell-based; conditions: dose 5-10 µM
Chain of Histone-lysine N-methyltransferase, H3 lysine-36 specific (Homo sapiens) (Q96L73 whole entry): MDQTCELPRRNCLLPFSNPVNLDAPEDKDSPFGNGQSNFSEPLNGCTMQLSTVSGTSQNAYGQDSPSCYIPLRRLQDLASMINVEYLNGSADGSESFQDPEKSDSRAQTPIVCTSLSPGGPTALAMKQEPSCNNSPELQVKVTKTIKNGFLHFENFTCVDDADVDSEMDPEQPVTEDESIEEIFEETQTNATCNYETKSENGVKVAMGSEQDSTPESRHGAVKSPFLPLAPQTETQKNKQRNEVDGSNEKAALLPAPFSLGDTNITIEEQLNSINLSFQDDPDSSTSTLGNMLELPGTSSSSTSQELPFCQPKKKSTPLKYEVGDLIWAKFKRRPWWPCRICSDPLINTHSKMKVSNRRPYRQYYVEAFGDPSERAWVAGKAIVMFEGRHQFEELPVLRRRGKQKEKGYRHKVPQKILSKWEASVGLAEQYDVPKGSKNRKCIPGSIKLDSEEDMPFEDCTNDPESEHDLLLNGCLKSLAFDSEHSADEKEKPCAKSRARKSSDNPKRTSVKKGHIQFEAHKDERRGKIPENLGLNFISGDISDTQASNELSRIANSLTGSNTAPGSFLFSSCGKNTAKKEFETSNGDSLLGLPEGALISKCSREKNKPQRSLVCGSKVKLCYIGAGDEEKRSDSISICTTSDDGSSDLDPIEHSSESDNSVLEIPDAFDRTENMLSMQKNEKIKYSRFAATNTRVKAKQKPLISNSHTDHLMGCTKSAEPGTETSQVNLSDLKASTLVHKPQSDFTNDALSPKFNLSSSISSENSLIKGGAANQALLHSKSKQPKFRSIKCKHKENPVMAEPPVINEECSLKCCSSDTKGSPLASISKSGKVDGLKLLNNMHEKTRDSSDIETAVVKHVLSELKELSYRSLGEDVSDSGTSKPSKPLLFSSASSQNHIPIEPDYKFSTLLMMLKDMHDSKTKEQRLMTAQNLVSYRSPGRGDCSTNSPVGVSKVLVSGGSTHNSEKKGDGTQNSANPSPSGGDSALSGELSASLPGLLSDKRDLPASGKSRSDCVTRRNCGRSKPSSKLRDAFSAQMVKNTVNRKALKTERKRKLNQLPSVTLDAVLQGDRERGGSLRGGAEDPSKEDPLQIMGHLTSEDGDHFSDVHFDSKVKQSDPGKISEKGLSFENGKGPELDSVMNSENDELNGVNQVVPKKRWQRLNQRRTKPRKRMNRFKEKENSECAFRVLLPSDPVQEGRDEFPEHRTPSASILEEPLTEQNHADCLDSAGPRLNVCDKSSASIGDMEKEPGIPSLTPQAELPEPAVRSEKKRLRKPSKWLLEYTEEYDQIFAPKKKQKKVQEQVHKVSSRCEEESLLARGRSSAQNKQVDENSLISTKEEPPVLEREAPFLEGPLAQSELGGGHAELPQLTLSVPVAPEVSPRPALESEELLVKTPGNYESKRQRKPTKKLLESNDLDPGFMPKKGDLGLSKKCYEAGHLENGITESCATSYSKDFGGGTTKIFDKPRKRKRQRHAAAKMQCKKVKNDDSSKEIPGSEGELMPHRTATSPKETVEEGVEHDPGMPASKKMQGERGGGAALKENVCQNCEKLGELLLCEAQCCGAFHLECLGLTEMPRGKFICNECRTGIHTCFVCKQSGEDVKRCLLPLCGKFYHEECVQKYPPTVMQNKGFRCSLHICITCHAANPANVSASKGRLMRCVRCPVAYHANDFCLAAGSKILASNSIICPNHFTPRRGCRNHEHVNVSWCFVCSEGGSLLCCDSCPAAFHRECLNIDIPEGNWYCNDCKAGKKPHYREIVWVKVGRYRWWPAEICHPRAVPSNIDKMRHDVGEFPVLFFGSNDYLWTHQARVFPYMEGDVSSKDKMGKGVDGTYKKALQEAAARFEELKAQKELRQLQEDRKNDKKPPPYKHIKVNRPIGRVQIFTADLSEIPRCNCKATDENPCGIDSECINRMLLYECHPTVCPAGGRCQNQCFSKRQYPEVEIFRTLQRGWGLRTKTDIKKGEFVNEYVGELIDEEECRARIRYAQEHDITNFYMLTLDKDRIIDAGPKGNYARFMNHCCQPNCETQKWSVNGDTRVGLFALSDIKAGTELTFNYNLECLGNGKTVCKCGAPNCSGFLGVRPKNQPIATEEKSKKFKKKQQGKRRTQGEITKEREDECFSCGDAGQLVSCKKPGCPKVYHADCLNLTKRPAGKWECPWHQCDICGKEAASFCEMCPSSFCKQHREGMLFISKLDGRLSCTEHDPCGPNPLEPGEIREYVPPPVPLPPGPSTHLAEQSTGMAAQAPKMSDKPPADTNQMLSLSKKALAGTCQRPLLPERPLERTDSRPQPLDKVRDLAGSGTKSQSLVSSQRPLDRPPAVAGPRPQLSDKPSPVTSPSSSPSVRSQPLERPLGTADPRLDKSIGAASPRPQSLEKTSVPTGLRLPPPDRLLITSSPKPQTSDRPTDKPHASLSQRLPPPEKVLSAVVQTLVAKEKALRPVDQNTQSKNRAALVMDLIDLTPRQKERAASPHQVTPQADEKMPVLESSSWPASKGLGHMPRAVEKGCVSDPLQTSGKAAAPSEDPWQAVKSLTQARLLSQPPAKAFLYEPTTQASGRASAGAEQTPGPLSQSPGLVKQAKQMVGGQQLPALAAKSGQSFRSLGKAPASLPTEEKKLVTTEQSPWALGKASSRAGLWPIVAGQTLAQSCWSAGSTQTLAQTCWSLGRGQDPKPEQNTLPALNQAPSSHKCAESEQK

[14] = target: T1, Histone-lysine N-methyltransferase NSD3 (Homo sapiens); assay: Induction of NSD3 degradation in human NCI-H1703 cells assessed as reduction in H3K36me3 methylation incubated for 72 hrs by Western blot analysis; format: cell-based; conditions: dose 3-7.5 µM
NCI-H1703 [15] = assay: Induction of apoptosis in human NCI-H1703 cells assessed as necrotic cells at […] measured after 72 hrs by PI/Annexin-V staining based flow cytometry analysis (reference value: 2.80% ); format: functional; conditions: dose 7.5 µM
NCI-H1703 [16] = assay: Downregulation of CyclinD1 level in human NCI-H1703 cells at 3 to […] by Western blot analysis; format: functional, cell-based; conditions: dose 3-7.5 µM

## Cc1cc(CNCCCCCCCCCCC(=O)N[C@H](C(=O)N2C[C@H](O)C[C@H]2C(=O)N[C@@H](C)c2ccc(-c3scnc3C)cc2)C(C)(C)C)cc(C)c1-c1ncn(C)c1-c1ccnc2cc(F)ccc12
[1]
  fold change (FC): 0.97
[2]
  Activity: inactive
NCI-H520 [3]
  fold change (FC): 0.5
NCI-H1703 [4]
  Activity: 26.6%
[5]
  fold change (FC): 1.03
[6]
  fold change (FC): 0.8
[7]
  fold change (FC): 0.66
NCI-H520 [8]
  fold change (FC): 0.86
[9]
  fold change (FC): 0.61
A549
  IC50: 5.49 µM
NCI-H520 [10]
  fold change (FC): 0.83
[11]
  Activity: Active
NCI-H1703 [12]
  fold change (FC): 0.73
[13]
  Activity: inactive
[14]
  Activity: Dose-Dependent Effect
NCI-H1703 [15]
  Activity: 2.99%
NCI-H1703 [16]
  Activity: Active
